Reference: patent US8901118B2, “Compounds and methods for kinase modulation, and indications therefor” (Plexxikon Inc., priority 2010, dated 2014)

Experiments:
[1] = Relative solubility by turbidity in aqueous buffers (pH 1.5, 4.5, 6.8, 7.4); type: physicochemical; conditions: for turbidity threshold (L, M, H) 1.4: pH 1.5 (SGF); for turbidity threshold (L, M, H) 4.5: pH 4.5 (SIF); for turbidity threshold (L, M, H) 6.8: pH 6.8 (SIF); for turbidity threshold (L, M, H) 7.4: pH 7.4 (HEPES)
How it was run: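 Reported value: concentration at which optical density at 490, 535 and 650 nm passes 0.01, taken as the mean of the three wavelengths. Buffers were 0.5M NaCl pH 1.5, 0.05M NaH2PO4 pH 4.5 or 6.8, and 10 mM HEPES/150 mM NaCl pH 7.4, each receiving serial 1:1 DMSO dilutions of a 25 mM stock.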

[2] = test system: Osteoclast precursor cells; assay: Osteoclast differentiation assay (acid phosphatase readout); type: cell-based
Protocol: Further, an osteoclast differentiation assay is used to assess the efficacy of Fms inhibitors for treating bone disease such as osteoarthritis. On day 0, Osteoclast Medium BulletKit (Lonza catalog #PT-8001, containing Media, FBS, L-Glutamine, PenStrep, RANKL, and M-CSF) media is thawed and the FBS, L-glutamine and PenStrep from the kit is added to 100 mL of Osteoclast Precursor Basal medium to provide the Osteoclast Precursor Growth Medium (OPGM). This is warmed to 37° C. Osteoclast precursor cells (Lonza catalog #2T-110) frozen in cryovial are warmed to 37° C. and transferred to a 50 mL conical tube. The cryovial is rinsed with OPGM and added dropwise to the conical tube of cells with swirling, then the volume is adjusted to 20-30 mL with addition of OPGM. The cells are centrifuged at 200×g for 15 minutes at room temperature and all but approximately 3 mL of supernatant is removed to a new conical tube. The cells are suspended in the remaining supernatant and the volume is adjusted to 10-15 mL with OPGM added dropwise with swirling. The cells are centrifuged at 200×g for 15 minutes at room temperature and all but approximately 1 mL of supernatant is removed. The cells are resuspended in the remaining supernatant, counted, and the volume adjusted with an appropriate amount of OPGM to provide approximately 1×10^5 cells/mL. A 0.1 mL aliquot of cells is added to each well of a 96-well plate. Compound to be tested is prepared in DMSO for plating at a high concentration of 2.5 mM, with 8 point 1:3 serial dilutions. A 1 μL aliquot of each compound dilution is added to a 96 well v-bottom polypropylene plate and 0.124 mL of OPGM is added to the compound. Then 50 μL at of the compound in OPGM is added to the osteoclast precursor cells in 96-well plate (providing highest test concentration of 5 μM). RANKL (2 μg) from the BulletKit is reconstituted in 1 mL of OPGM, then vortexed and centrifuged briefly. A 792 μL at aliquot of RANKL is added to 6 mL of OPGM and 50 μL at is added to low control wells. Then 76.6 μL M-CSF (10 μg/mL) from the BulletKit is added to the remaining 5.8 mL of OPGM/RANKL solution (4×RANKL/M-CSF/OPGM). A 50 μL at aliquot of this is added to the remaining wells, and the remainder is stored at 4° C. for later use. The plate is incubated at 37° C. for 6 days, then the remaining OPGM/RANKL/M-CSF solution is warmed to 37° C. The remaining approximately 198 μL is combined with 6 mL of OPGM. The media is aspirated from the osteoclast wells and 100 μL of RANKL/OPGM is added to the low controls. The remaining RANKL/OPGM is combined with the approximately 18.5 μL of remaining M-CSF. The remaining 4×RANKL/M-CSF/OPGM from day 0 is diluted to 1× and combined with the freshly prepared solution. A 0.1 mL aliquot of this is added to each osteoclast well and incubated for 37° C. for 1 day. The Acid Phosphatase kit (Cayman Chemical catalog #10008051) is warmed to room temperature. The assay buffer is diluted 5 mL with 45 mL of water. For each plate, two substrate tablets are dissolved in 4.5 mL of the assay buffer, mixing by vortex to break up the tablet. Stop solution is diluted 12 mL with 36 mL of water. In a tissue culture hood, 20 μL of each osteoclast well supernatant is transferred to a 96 well plate. A 30 μL aliquot of the substrate solution is added to each well and incubated at 37° C. for 20 minutes, then added 100 μL stop solution to each well. The absorbance of each well is read at 405 nm on Safire plate reader. The absorbance reading is plotted vs. concentration to provide the IC50 for each compound.

Structure (SMILES)	turbidity threshold (L, M, H) 1.4 [1]	turbidity threshold (L, M, H) 4.5 [1]	turbidity threshold (L, M, H) 6.8 [1]	turbidity threshold (L, M, H) 7.4 [1]	IC50 [2] [µM]
CCOc1ncnc2[nH]cc(Cc3ccc(Nc4cnn(CC)c4)nc3F)c12 [Compound P-4012, [5-(4-Ethoxy-7H-pyrrolo[2,3-d]pyrimidin-5-ylmethyl)-6-fluoro-pyridin-2-yl]-(1-ethyl-1H-pyrazol-4-yl)-amine]	M (moderate solubility if the threshold concentration is 31.3 μM to 250 μM)	L (low solubility if the threshold concentration is <31.3 μM)	L (low solubility if the threshold concentration is <31.3 μM)	L (low solubility if the threshold concentration is <31.3 μM)	< 0.1
COc1ncnc2[nH]cc(Cc3ccc(Nc4ccc(C)nc4)nc3F)c12 [Compound P-4010, [6-Fluoro-5-(4-methoxy-7H-pyrrolo[2,3-d]pyrimidin-5-ylmethyl)-pyridin-2-yl]-(6-methyl-pyridin-3-yl)-amine]	H (high solubility if the threshold concentration is >250 μm)	M (moderate solubility if the threshold concentration is 31.3 μM to 250 μM)	L (low solubility if the threshold concentration is <31.3 μM)	L (low solubility if the threshold concentration is <31.3 μM)	< 0.1
CCOc1ccc(Nc2ccc(Cc3c[nH]c4ncnc(C)c34)c(F)n2)cn1 [Compound P-4006, (6-Ethoxy-pyridin-3-yl)-[6-fluoro-5-(4-methyl-7H-pyrrolo[2,3-d]pyrimidin-5-ylmethyl)-pyridin-2-yl]-amine]	H (high solubility if the threshold concentration is >250 μm)	L (low solubility if the threshold concentration is <31.3 μM)	L (low solubility if the threshold concentration is <31.3 μM)	L (low solubility if the threshold concentration is <31.3 μM)	< 0.1
Cc1ccc(Nc2ccc(Cc3c[nH]c4ncc(Cl)cc34)c(F)n2)cn1 [Compound P-3042, [5-(5-Chloro-1H-pyrrolo[2,3-b]pyridin-3-ylmethyl)-6-fluoro-pyridin-2-yl]-(6-methyl-pyridin-3-yl)-amine]					< 0.1
CCn1cc(Nc2ncc(Cc3c[nH]c4ncc(C)cc34)cn2)cn1 [Compound P-3036, (1-Ethyl-1H-pyrazol-4-yl)-[5-(5-methyl-1H-pyrrolo[2,3-b]pyridin-3-ylmethyl)-pyrimidin-2-yl]-amine]					< 0.1
Clc1cnc2[nH]cc(Cc3cnc(NC4CCCCCC4)nc3)c2c1 [Compound P-3006, [5-(5-Chloro-1H-pyrrolo[2,3-b]pyridin-3-ylmethyl)-pyrimidin-2-yl]-cycloheptyl-amine]					< 0.1
CCOc1ccc(Nc2ncc(Cc3c[nH]c4ncc(C)cc34)cn2)cn1 [Compound P-3027, (6-Ethoxy-pyridin-3-yl)-[5-(5-methyl-1H-pyrrolo[2,3-b]pyridin-3-ylmethyl)-pyrimidin-2-yl]-amine]					< 0.1
Fc1nc(NC2CCC(F)(F)CC2)ccc1Cc1c[nH]c2ncnc(NCC(F)(F)F)c12 [Compound P-4128, 5-[[6-[(4,4-difluorocyclohexyl)amino]-2-fluoro-3-pyridyl]methyl]-N-(2,2,2-trifluoroethyl)-7H-pyrrolo[2,3-d]pyrimidin-4-amine]	H (high solubility if the threshold concentration is >250 μm)	M (moderate solubility if the threshold concentration is 31.3 μM to 250 μM)	M (moderate solubility if the threshold concentration is 31.3 μM to 250 μM)	M (moderate solubility if the threshold concentration is 31.3 μM to 250 μM)	
CCOc1ncnc2[nH]cc(Cc3ccc(Nc4ccc(C)nc4)nc3F)c12 [Compound P-4017, [5-(4-Ethoxy-7H-pyrrolo[2,3-d]pyrimidin-5-ylmethyl)-6-fluoro-pyridin-2-yl]-(6-methyl-pyridin-3-yl)-amine]	M (moderate solubility if the threshold concentration is 31.3 μM to 250 μM)	M (moderate solubility if the threshold concentration is 31.3 μM to 250 μM)	M (moderate solubility if the threshold concentration is 31.3 μM to 250 μM)	L (low solubility if the threshold concentration is <31.3 μM)	
Fc1nc(Nc2ccc(C3CC3)nc2)ccc1Cc1c[nH]c2ncnc(NCC(F)(F)F)c12 [Compound P-4130, 5-[[6-[(6-cyclopropyl-3-pyridyl)amino]-2-fluoro-3-pyridyl]methyl]-N-(2,2,2-trifluoroethyl)-7H-pyrrolo[2,3-d]pyrimidin-4-amine]	H (high solubility if the threshold concentration is >250 μm)	M (moderate solubility if the threshold concentration is 31.3 μM to 250 μM)	M (moderate solubility if the threshold concentration is 31.3 μM to 250 μM)	M (moderate solubility if the threshold concentration is 31.3 μM to 250 μM)	
CCOc1ccc(Nc2ccc(C(=O)c3c[nH]c4ncnc(OC)c34)c(F)n2)cn1 [Compound P-4024, [6-(6-Ethoxy-pyridin-3-ylamino)-2-fluoro-pyridin-3-yl]-(4-methoxy-7H-pyrrolo[2,3-d]pyrimidin-5-yl)-methanone]	M (moderate solubility if the threshold concentration is 31.3 μM to 250 μM)	L (low solubility if the threshold concentration is <31.3 μM)	M (moderate solubility if the threshold concentration is 31.3 μM to 250 μM)	M (moderate solubility if the threshold concentration is 31.3 μM to 250 μM)	
COc1ccc(Nc2ccc(Cc3c[nH]c4ncnc(C)c34)c(F)n2)cn1 [Compound P-4002, [6-Fluoro-5-(4-methyl-7H-pyrrolo[2,3-d]pyrimidin-5-ylmethyl)-pyridin-2-yl]-(6-methoxy-pyridin-3-yl)-amine]	H (high solubility if the threshold concentration is >250 μm)	M (moderate solubility if the threshold concentration is 31.3 μM to 250 μM)	M (moderate solubility if the threshold concentration is 31.3 μM to 250 μM)	M (moderate solubility if the threshold concentration is 31.3 μM to 250 μM)	
Cc1cnc2[nH]cc(Cc3ccc(Nc4ccc(C)nc4)nc3F)c2c1 [Compound P-3041, [6-Fluoro-5-(5-methyl-1H-pyrrolo[2,3-b]pyridin-3-ylmethyl)-pyridin-2-yl]-(6-methyl-pyridin-3-yl)-amine]					< 0.1
